# Experimental data from the supplement of paper PMC10331698.
# ± gives the standard deviation of the averaged measurements.
# Assays:
# Experiment in all cases: level (log10 ratio to DMSO vehicle control); higher = higher biomarker level / cell amount than vehicle control
# Settings in all cases: in DMSO
# 1-(Perfluorohexyl)octane = compound: CCCCCCCCC(F)(F)C(F)(F)C(F)(F)C(F)(F)C(F)(F)C(F)(F)F [1-(Perfluorohexyl)octane]
# Method: (§1)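 BioMAP Diversity Plus panel of 12 human primary cell co-culture systems (3C, 4H, LPS, SAg, BT, BF4T, BE3C, CASM3C, HDF3CGF, KF3CT, MyoF, Mphg). Compounds were added 1 h before stimulation and left for 24 h (MyoF 48 h; BT 72 h for soluble read-outs or 6 d for IgG). Biomarkers were read by ELISA, cytotoxicity by SRB, PBMC viability and proliferation by Alamar Blue. Each well value was divided by the mean of 8 DMSO control wells on the same plate and log10 transformed; duplicate blinded samples were tested at 4 concentrations.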
# Perfluorooctanamidine = compound: N=C(N)C(F)(F)C(F)(F)C(F)(F)C(F)(F)C(F)(F)C(F)(F)C(F)(F)F [Perfluorooctanamidine]
# Method: as §1
# [1] = compound: O=C(O)C(F)(F)C(F)(F)C(F)(F)C(F)(F)C(F)(F)C(F)(F)C(F)(F)C(F)(F)C(F)(F)C(F)(F)C(F)(F)C(F)(F)F [Perfluorotridecanoic acid]
# Method: as §1
# [2] = compound: O=C(O)CCC(F)(F)C(F)(F)C(F)(F)F [3:3 Fluorotelomer carboxylic acid]
# Method: as §1
# [3] = compound: O=S(=O)(O)C(F)(F)C(F)(F)C(F)(F)C(F)(F)C(F)(F)C(F)(F)C(F)(F)C(F)(F)F [Potassium perfluorooctanesulfonate]
# Method: as §1
# [4] = compound: OCC(F)(F)C(F)(F)C(F)(F)C(F)(F)C(F)(F)C(F)F [1H,1H,7H-Dodecafluoro-1-heptanol]
# Method: as §1
Test System,level (log10) (1-(Perfluorohexyl)octane; 6700 nM),level (log10) (1-(Perfluorohexyl)octane; 20000 nM),level (log10) (Perfluorooctanamidine; 6700 nM),level (log10) (Perfluorooctanamidine; 20000 nM),level (log10) (Perfluorooctanamidine; 60000 nM),level (log10) ([1]; 1500 nM),level (log10) ([1]; 4400 nM),level (log10) ([1]; 13000 nM),level (log10) ([1]; 40000 nM),level (log10) ([2]; 6700 nM),level (log10) ([2]; 20000 nM),level (log10) ([2]; 60000 nM),level (log10) ([3]; 6700 nM),level (log10) ([3]; 20000 nM),level (log10) ([3]; 60000 nM),level (log10) ([4]; 6700 nM),level (log10) ([4]; 20000 nM),level (log10) ([4]; 60000 nM)
BE3C:IL-1alpha,0.001 ± 0.02,0.0415 ± 0.044,0.0065 ± 0.026,0.002 ± 0.0028,0.047,0.027 ± 0.04,-0.0165 ± 0.0078,0.0035 ± 0.023,0.024 ± 0.0057,0.0135 ± 0.037,0.0255 ± 0.039,0.0155 ± 0.035,0.022 ± 0.0042,0.02 ± 0.0071,-0.0105 ± 0.03,0.0085 ± 0.021,0.0045 ± 0.0092,0.024 ± 0.0057
BF4T:CCL2/MCP-1,-0.014 ± 0.028,0.0175 ± 0.005,0.031 ± 0.0099,0.025 ± 0.045,0.06,0.025 ± 0.0028,0.0195 ± 0.028,0.035 ± 0.0042,0.0175 ± 0.013,-0.0025 ± 0.0021,-0.018 ± 0.0014,-0.01 ± 0.041,0.005 ± 0.072,0.0255 ± 0.022,0.07 ± 0.016,0.022 ± 0.05,0.0085 ± 0.057,0.009 ± 0.02
BE3C:HLA-DR,0.0095 ± 0.036,0.0015 ± 0.005,-0.0015 ± 0.018,-0.003 ± 0.021,-0.01,-0.0105 ± 0.04,-0.0325 ± 0.013,-0.0355 ± 0.0078,-0.0195 ± 0.019,-0.0345 ± 0.035,-0.018 ± 0.011,-0.0225 ± 0.005,-0.012 ± 0.018,-0.194 ± 0.023,-0.191 ± 0.042,0.0155 ± 0.032,-0.0015 ± 0.042,-0.0095 ± 0.015
BF4T:CCL26/Eotaxin-3,0.015 ± 0.051,0.0015 ± 0.054,0.0375 ± 0.044,-0.0585 ± 0.026,-0.106,-0.0035 ± 0.052,-0.0725 ± 0.022,-0.089 ± 0.04,-0.0555 ± 0.026,-0.015 ± 0.018,-0.0095 ± 0.026,0.009 ± 0.018,-0.0775 ± 0.074,-0.146 ± 0.056,-0.126 ± 0.0064,0.0025 ± 0.043,-0.0005 ± 0.036,0.013 ± 0.028
LPS:CD141/Thrombomodulin,-0.0215 ± 0.0021,0.0025 ± 0.023,-0.0235 ± 0.0078,-0.0325 ± 0.022,-0.01,0.045 ± 0.016,0.0125 ± 0.0092,0.0335 ± 0.0035,-0.001 ± 0.016,-0.0175 ± 0.022,-0.001 ± 0.013,0.0035 ± 0.036,-0.0225 ± 0.028,-0.0215 ± 0.023,-0.025 ± 0.044,0.001 ± 0.028,0.0005 ± 0.037,0.0005 ± 0.042
4H:CD62P/P-selectin,0.0245 ± 0.039,-0.007 ± 0.016,-0.0165 ± 0.012,-0.007 ± 0.0085,-0.032,-0.0285 ± 0.016,-0.017 ± 0.0085,0.0125 ± 0.013,0.021 ± 0.011,0.0135 ± 0.042,0.0445 ± 0.025,-0.003 ± 0.02,0.0375 ± 0.015,0.085 ± 0.0042,0.086 ± 0.027,-0.003 ± 0.078,0.051 ± 0.067,0.032 ± 0.016
LPS:CD106/VCAM-1,0.001 ± 0.0057,0.017 ± 0.0085,-0.017 ± 0.014,-0.0365 ± 0.026,-0.091,-0.004 ± 0.0014,-0.0315 ± 0.054,-0.029 ± 0.052,-0.08 ± 0.0057,-0.0155 ± 0.0078,0.011 ± 0.0028,-0.0145 ± 0.029,0.0025 ± 0.019,-0.004 ± 0.016,-0.0125 ± 0.04,0 ± 0.0042,-0.0075 ± 0.00071,-0.0065 ± 0.019
SAg:CD40,-0.0275 ± 0.00071,-0.017 ± 0.016,-0.0055 ± 0.0021,0.014 ± 0.023,-0.093,-0.021 ± 0.017,-0.071 ± 0.0057,-0.0705 ± 0.06,-0.497 ± 0.044,-0.002 ± 0.0071,-0.008 ± 0.011,-0.015 ± 0.0042,-0.005 ± 0.0057,-0.0205 ± 0.039,-0.032 ± 0.042,0.015 ± 0.0099,0 ± 0.018,-0.0015 ± 0.005
BT:sIL-2,-0.024 ± 0.073,0.0635 ± 0.067,0.0225 ± 0.057,-0.01 ± 0.031,-0.002,0.064,0.061 ± 0.0042,0.0925 ± 0.022,0.093 ± 0.14,-0.042 ± 0.13,-0.0335 ± 0.022,0.0335 ± 0.0021,0.042 ± 0.027,0.0595 ± 0.029,-0.0325 ± 0.077,0.026 ± 0.013,-0.0265 ± 0.005,-0.025 ± 0.045
BF4T:CD106/VCAM-1,0.005 ± 0.051,-0.0025 ± 0.035,0.0325 ± 0.0092,0.018 ± 0.052,0.021,0.005 ± 0.065,0.007 ± 0.028,0.0035 ± 0.0064,-0.0205 ± 0.0092,-0.012 ± 0.041,0.0075 ± 0.0078,0.0205 ± 0.018,0.0115 ± 0.015,-0.014 ± 0.0099,0.01 ± 0.052,-0.0065 ± 0.039,-0.0035 ± 0.013,0.011 ± 0.031
BE3C:CXCL10/IP-10,0.0055 ± 0.013,-0.0025 ± 0.012,0.0045 ± 0.023,-0.0055 ± 0.0035,0.003,-0.0015 ± 0.029,-0.019 ± 0.027,-0.038 ± 0.03,-0.0365 ± 0.056,-0.0015 ± 0.005,0.0045 ± 0.015,0.013 ± 0.0099,-0.0455 ± 0.0035,-0.505 ± 0.0057,-0.589 ± 0.014,0.0055 ± 0.028,0.004 ± 0.021,0.0125 ± 0.012
BF4T:IL-1alpha,-0.017 ± 0.018,0.012 ± 0.02,-0.003 ± 0.0085,-0.017 ± 0.0014,0.042,0.016 ± 0.025,-0.0195 ± 0.011,-0.009 ± 0.02,0.017 ± 0.018,-0.0035 ± 0.019,-0.009 ± 0.02,0.003,0.003 ± 0.0028,0.0065 ± 0.0078,0.0125 ± 0.044,-0.006 ± 0.024,-0.006 ± 0.0099,-0.0085 ± 0.012
LPS:CD40,-0.0355 ± 0.079,-0.0205 ± 0.049,-0.0145 ± 0.04,-0.0525 ± 0.021,-0.148,0.015 ± 0.092,-0.0215 ± 0.17,-0.032 ± 0.11,-0.03 ± 0.092,-0.0035 ± 0.021,0.027 ± 0.028,-0.014 ± 0.051,-0.062 ± 0.052,-0.055 ± 0.014,-0.062 ± 0.016,-0.0085 ± 0.03,0.026 ± 0.023,-0.013 ± 0.038
BF4T:MMP-9,-0.014 ± 0.02,0.005 ± 0.025,-0.006 ± 0.0057,-0.0115 ± 0.013,0.053,0.01 ± 0.027,0.0075 ± 0.043,-0.0015 ± 0.036,0.033 ± 0.078,0.0165 ± 0.07,0.002 ± 0.065,0.0285 ± 0.046,0.024 ± 0.017,0.048 ± 0.02,0.0665 ± 0.046,-0.0055 ± 0.03,-0.011 ± 0.027,0.0095 ± 0.046
BE3C:CXCL8/IL-8,0.0125 ± 0.052,0.068 ± 0.024,0.029 ± 0.042,-0.026 ± 0.061,-0.034,-0.002 ± 0.045,0.01 ± 0.045,-0.0215 ± 0.00071,0.0115 ± 0.00071,-0.0085 ± 0.036,0.0075 ± 0.005,-0.0095 ± 0.0092,-0.053 ± 0.065,-0.112 ± 0.035,-0.082 ± 0.024,0.0245 ± 0.053,0.0005 ± 0.032,-0.009 ± 0.014
BF4T:tPA,0.0075 ± 0.013,0.026 ± 0.0057,0.004 ± 0.014,-0.027 ± 0.069,0.028,0.025 ± 0.05,-0.009 ± 0.017,-0.0045 ± 0.015,-0.0085 ± 0.018,0.004 ± 0.031,-0.0005 ± 0.015,0.015 ± 0.0099,-0.0045 ± 0.0092,-0.019 ± 0.0028,0.0185 ± 0.032,0.0045 ± 0.0078,-0.0025 ± 0.00071,0.01 ± 0.011
